Test results as given in PubChem BioAssay AID1508591.
Where a SMILES comes first, the peptide text is derived from it. [ ]: non-standard residue; d: D form. ξ: configuration not given here. ξLac(3-iPr) = CC(C)CC(O)C(=O)O; NMeV = CN[CH](C(=O)O)C(C)C; NMeA = CN[CH](C)C(=O)O; βAla = NCCC(=O)O

Conditions: rat; liver microsomes; pH 7.4; 15.0 min; 1.0 µM

Compound	half-life [min]
COc1ccccc1C(=O)Nc1nnc(SCc2cc(=O)c3ccccc3[nH]2)s1	7.49
O=C1c2ccccc2-n2c1nc1ccccc1c2=O	21.3
O=C(Nc1ccc(S(=O)(=O)Nc2nccs2)cc1)c1cccnc1	> 30
O=C(Nc1nc(-c2ccccc2)cs1)c1ccncc1NS(=O)(=O)c1ccc2c(c1)CCC2	5.6
CCOC(=O)c1ccc(N2C(=O)c3n[nH]c(-c4cccs4)c3C2c2ccc(OCC)cc2)cc1 (stereo not drawn)	5.72
O=C(Nc1nc(-c2ccccc2)cs1)c1ccncc1NS(=O)(=O)c1ccc(N2CCCC2=O)cc1	1.6
FC(F)(F)c1cccc(N2CCN(C(=S)Nc3cc4ccccc4cn3)CC2)c1	> 30
O=[S+]([O-])(Nc1nccs1)c1ccc(NCc2ccc(Cl)c(Cl)c2)cc1	24
c1ccc(CNc2cc3c(cn2)CN(Cc2cccnc2)CCN3)cc1	15
O=c1c(-c2cccs2)ccc2n1C[C@H]1C[C@@H]2CN(C2CCOCC2)C1	14.6
CCOC(=O)c1cc(-c2ccco2)nc2c1c(C)nn2CCC#N	3.57
O=C(CCCCCCC(=O)Nc1ccccc1)NO	> 30
Cn1cnc(S(=O)(=O)Nc2cnccc2C(=O)Nc2nc(-c3ccccc3)cs2)c1	> 30
O=C1CCCC2=C1C1(CCCC1)N=C(Nc1nc3cc(Br)ccc3o1)N2	4.9
COc1c(O)ccc2c1CN1CCc3cc4c(cc3[C@@H]1C2)OCO4	18.9
O=C(NCC1(c2nc(-c3ccccc3)cs2)CCOCC1)c1cccc(-c2noc(C(F)(F)F)n2)c1	2.92
COc1cc(C2CC(=O)Nc3cc4c(cc32)OCCO4)cc(Br)c1OC (stereo not drawn)	2.55
O=S(=O)(Nc1nccs1)c1ccc(NCc2cccc(Cl)c2O)cc1	14
CCc1ccc(-n2nc(C)c3c2NC(=O)CSC3c2ccccc2C)cc1 (stereo not drawn)	2.44
NC(=O)C1CCN(c2ncc(Br)s2)CC1	> 30
COc1ncc(-c2n[nH]c3c2CC(=O)N(c2ccccc2)C3)cn1	> 30
COc1cc2c(c(OC)c1OC)-c1ccc(SC)c(=O)cc1C(N)CC2 (stereo not drawn)	9.88

Compound	half-life [min]
COc1ccc(C2=Nc3ccc(C)cc3C(c3ccccc3)N2CC(=O)NN)cc1 (stereo not drawn)	5.3
COc1ccccc1-c1nc(NCc2cnc(C)cn2)c2ccccc2n1	10
COCCNC(=O)[C@H]1C[C@H](Oc2ccccc2)CN1Cc1ccc2[nH]ccc2c1	0.97
O=S(=O)(Nc1nc2ccccc2s1)c1ccc(NCc2cccc(Cl)c2O)cc1	> 30
COc1cc2nccc(Oc3ccc(NC(=O)Nc4cc(C)on4)c(Cl)c3)c2cc1OC	> 30
Cc1c(C)n(Cc2ccccc2)c2ccc(C(=O)OCCN(C)C)cc12	1.78
CCC(C)C1NC(=O)C2CCCN2C(=O)C(CC(C)C)OC(=O)CCNC(=O)C(C)N(C)C(=O)C(C(C)C)N(C)C1=O (stereo not drawn) (cyclo([ξLac(3-iPr)]PI[NMeV][NMeA][βAla]); configuration not given here)	18.1
CCCCCn1cc2c(c1-c1ccc(Br)cc1)c(=O)n(C)c(=O)n2C	6.39
Cc1noc(C)c1-c1csc(N2CCC(C(N)=O)CC2)n1	> 30
CCCNC(=O)[C@H]1O[C@H]1C(=O)N[C@H](C(=O)N1CCC[C@@H]1C(=O)OC)C(C)CC (stereo partly drawn)	> 30
CCc1ccc(C2C(C(=O)Nc3ccccc3OC)=C(C)Nc3c(C(=O)Nc4ccc(C)cc4)cnn32)cc1 (stereo not drawn)	2.75
CCC(CC)c1cc([C@H]2CN3CC[C@H]2C[C@@H]3CNS(=O)(=O)c2cccs2)nc(-c2ccncc2)n1	> 30
Clc1cccc(COc2cncc(N3CCNCC3)n2)c1	2.55
COc1cccc(CN(C)c2ccc([S+](=O)([O-])Nc3nccs3)cc2)c1O	> 30
O=C1CCCC2=C1C(c1ccccc1I)N=C(Nc1nc3ccccc3o1)N2 (stereo not drawn)	8.4
Cc1ccc(S(=O)(=O)Nc2ccccc2C(=O)Nc2ncc(-c3ccccc3)o2)cc1	3.5
Cc1ccc2nc(NC3=NC(c4[nH]ncc4Cl)C4=C(CCCC4=O)N3)oc2c1 (stereo not drawn)	15.8
CC[C@@H]1C(=O)N(C)c2cnc(Nc3ccc(C(=O)NC4CCN(C)CC4)cc3OC)nc2N1C1CCCC1	> 30
CCn1ncc(NC(=O)Cn2ncc3cc(-c4cccc(OC)c4)ccc32)n1	20.4
COCCNS(=O)(=O)c1cc(-c2nn3c(C)nnc3c3ccccc23)ccc1C	4.77
FC(F)(F)c1cccc(Nc2ccc(CNc3nc(-c4ccccc4C(F)(F)F)nc4ccccc34)cc2)c1	15.6

Other lines, results leading:

half-life [min]	Compound
1.8	Cc1cccc(-n2cnc3cc(C(=O)N4CCCC(C(C)C)C4)ccc32)c1 (stereo not drawn)
6.5	Cc1cc(C)c(C(=O)Nc2cccc([S+](=O)([O-])N3CCCC3)c2)[nH]1
11	Cc1ccccc1C(=O)N1CCc2cc(-n3cc(NC(=O)Cc4ccccc4)cn3)ccc21
17.1	Cc1ccc(NC(=O)N2CCN(c3nc(N)nc4sc(-c5cccnc5)nc34)CC2)cc1
> 30	Cc1ccnc(C)c1C(=O)Nc1cccc([S+](=O)([O-])N(C)C)c1
5.7	CN(C)c1cccc(-c2ncnc(N3CCC(C(N)=O)CC3)n2)c1
> 30	COc1ccc(-n2nc(C3CCN(C(=O)c4ccccc4)CC3)[nH]c2=O)cc1
4.72	NC(=O)C1CCN(c2nc(-c3cccc4ccccc34)cs2)CC1
1.88	NC(=O)C1CCN(c2nc(-c3cccc(Cl)c3)cs2)CC1
5.9	Fc1cc(Nc2nc(-c3ccncc3)nc3ccccc23)ccc1N1CCCCC1
14	Cc1ccc(S(=O)(=O)Nc2cnccc2C(=O)Nc2ccc(-c3nc4ccccc4[nH]3)cc2)cc1
> 30	CC(=O)N1CCC(NC(=O)c2nc(-c3ccccc3)cc3[nH]ccc23)CC1
> 30	Cc1ccccc1C(=O)NC1CCN(c2ccc3nnc(C4CC4)n3n2)CC1
16	O=C(c1ccc2c(c1)ncn2-c1ccccc1)N1CCCCC1
2.27	CCOC(=O)c1[nH]c(C)c(CCC(=O)N2CCN(c3cccc(C)c3C)CC2)c1C
16.2	O=C(NC1CCCN(c2cc(-c3ccc(F)cc3)[nH]n2)C1)c1ccc2ncccc2c1 (stereo not drawn)
4.2	COc1ccc(NC(=O)c2c(C)cccc2C)cc1[S+](=O)([O-])N1CCCCC1
2.5	Cc1cccc(-n2cnc3cc(C(=O)N4CCC(Br)CC4)ccc32)c1
2.9	Cc1cccc(-n2cnc3cc(C(=O)N4CCCCCC4)ccc32)c1
9.74	CCOc1cccc(C(=O)Nc2nc3c(s2)CC(C(C)(C)C)CC3)c1 (stereo not drawn)
17.6	COc1cccc(C(=O)Nc2nc(-c3nnn(-c4cc(C)ccc4C)c3C)ns2)c1
> 30	O=C(Nc1ccc(N2CCN(C(=O)c3ccccc3F)CC2)cc1)c1cncc(Br)c1
23.4	COc1ccc(-n2nc(C3CCCN(C(=O)c4cccc(OC)c4)C3)[nH]c2=O)cc1 (stereo not drawn)
8.11	Cc1cc(C)c(CNC(=O)c2nc(-c3cccc(CO)c3)cc3c2ccn3C)c(=O)[nH]1
2.31	COC(=O)c1c(NC(=O)Cc2coc3cc(C)ccc23)sc2c1CCC2
17	CC(=O)c1c(C)[nH]c(C(=O)Nc2cccc(S(=O)(=O)N3CCOCC3)c2)c1C
5.83	O=C(c1ccc2c(c1)ncn2-c1cccc(Cl)c1)N1CCCCC1
2.1	Cc1cc(-c2nnc3n2CCCCC3)c(C)n1-c1ccc(C(F)(F)F)cc1
3.5	Cc1ccnc(NC(=S)N2CC[C@@H](Nc3cccc(C(F)(F)F)c3)C2)c1
4.4	CC(=O)c1ccc(-c2csc(N3CCC(C(N)=O)CC3)n2)cc1
